Reference: patent US20230117831A1, “MULTI-FUNCTIONAL CHIMERIC MOLECULES” (THE BROAD INSTITUTE, INC., priority 2020, published 2023)
Where two headings read alike, the source gives them in different places.

What was measured:
PKCalpha = PKCalpha (Homo sapiens, UniProt P17252); settings: PKC alpha; read-out: Kd; cited from earlier work
PKC beta = PKC beta (Homo sapiens, UniProt P05771); settings: PKC beta, cited from earlier work
PKC gamma = PKC gamma (Homo sapiens, UniProt P05129); settings: PKC gamma, cited from earlier work
PKC delta = PKC delta (Homo sapiens, UniProt Q05655); settings: PKC delta, cited from earlier work
PKC epsilon = target: T1, PKC epsilon (Homo sapiens, UniProt Q02156); settings: PKC epsilon, cited from earlier work
T1 sequence (Q02156 1-737): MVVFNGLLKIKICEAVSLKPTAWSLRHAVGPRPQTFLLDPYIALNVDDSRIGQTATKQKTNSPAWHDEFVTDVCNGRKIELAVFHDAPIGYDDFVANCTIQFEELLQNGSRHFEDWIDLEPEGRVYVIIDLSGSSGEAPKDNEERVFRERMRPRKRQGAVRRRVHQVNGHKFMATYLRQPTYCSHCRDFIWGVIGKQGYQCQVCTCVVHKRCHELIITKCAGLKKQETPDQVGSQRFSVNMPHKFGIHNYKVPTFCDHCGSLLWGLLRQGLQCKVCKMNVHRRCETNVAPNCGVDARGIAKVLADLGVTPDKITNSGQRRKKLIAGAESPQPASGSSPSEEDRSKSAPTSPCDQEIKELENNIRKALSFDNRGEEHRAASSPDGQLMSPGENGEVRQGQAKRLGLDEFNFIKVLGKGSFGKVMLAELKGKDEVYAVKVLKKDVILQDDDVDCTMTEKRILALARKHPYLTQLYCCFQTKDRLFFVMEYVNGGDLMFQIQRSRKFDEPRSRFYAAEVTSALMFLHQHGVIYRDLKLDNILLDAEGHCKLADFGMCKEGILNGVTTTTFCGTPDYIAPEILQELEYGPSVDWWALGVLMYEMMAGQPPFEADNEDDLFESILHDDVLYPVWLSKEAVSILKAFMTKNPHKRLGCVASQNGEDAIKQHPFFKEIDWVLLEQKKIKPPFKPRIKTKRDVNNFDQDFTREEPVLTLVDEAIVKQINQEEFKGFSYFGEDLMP

[1] = tested on: breast carcinoma cell lines MCF-7 and MDA-MB-231; settings: cited from earlier work
PKC eta = PKC eta (Homo sapiens, UniProt P24723); settings: cited from earlier work
PKCα = PKCα (Homo sapiens, UniProt P17252); assay: ADP-Glo kinase activation, CREBtide peptide; format: biochemical; parameters: GST; purchased SignalChem P61-18G
Description: ADP-Glo assay was performed with PHICS (PKC) in a similar manner with some modifications as follows. In a 96 well plate (white, flat bottom), similar concentration series of PHICS (2.1, 2.2, 2.3, 2.4 and 2.5) were prepared using same kinase assay buffer and incubated with 2 ng of PKC, 0.2 μg/μL CREBtide peptide and 50 μM ATP for 1 hr at room temperature before incubation with ADP-Glo assay reagents.

BRAF = BRAF (Homo sapiens, UniProt P15056); settings: cited from earlier work
BRD4 (AMPK) = BRD4 (AMPK) (Homo sapiens, UniProt O60885+Q13131+Q9Y478); assay: in vitro kinase assay, BRD4 phosphorylation by AMPK with/without AMP; format: biochemical; settings: 1 uM compound, with and without 100 uM AMP
Description: In vitro kinase assay was conducted for BRD4 phosphorylation by AMPK (1 uM compound). Compounds MS231, and VS806 tested are depicted below.
Compounds MS231, VS806 and VS804 were tested with and without 100 uM AMP. ADP glo for BRD4 phosphorylation by AMPK with and without AMP was conducted. The addition of AMP enhanced the phosphorylation signal, with ADP production measured at 2 hours, 20 nM AMPK.

BTK = BTK (Homo sapiens, UniProt Q06187); settings: cited from earlier work
DDR2 = target: T2, DDR2 (Homo sapiens, UniProt Q16832); settings: cited from earlier work
T2 sequence (Q16832 22-855): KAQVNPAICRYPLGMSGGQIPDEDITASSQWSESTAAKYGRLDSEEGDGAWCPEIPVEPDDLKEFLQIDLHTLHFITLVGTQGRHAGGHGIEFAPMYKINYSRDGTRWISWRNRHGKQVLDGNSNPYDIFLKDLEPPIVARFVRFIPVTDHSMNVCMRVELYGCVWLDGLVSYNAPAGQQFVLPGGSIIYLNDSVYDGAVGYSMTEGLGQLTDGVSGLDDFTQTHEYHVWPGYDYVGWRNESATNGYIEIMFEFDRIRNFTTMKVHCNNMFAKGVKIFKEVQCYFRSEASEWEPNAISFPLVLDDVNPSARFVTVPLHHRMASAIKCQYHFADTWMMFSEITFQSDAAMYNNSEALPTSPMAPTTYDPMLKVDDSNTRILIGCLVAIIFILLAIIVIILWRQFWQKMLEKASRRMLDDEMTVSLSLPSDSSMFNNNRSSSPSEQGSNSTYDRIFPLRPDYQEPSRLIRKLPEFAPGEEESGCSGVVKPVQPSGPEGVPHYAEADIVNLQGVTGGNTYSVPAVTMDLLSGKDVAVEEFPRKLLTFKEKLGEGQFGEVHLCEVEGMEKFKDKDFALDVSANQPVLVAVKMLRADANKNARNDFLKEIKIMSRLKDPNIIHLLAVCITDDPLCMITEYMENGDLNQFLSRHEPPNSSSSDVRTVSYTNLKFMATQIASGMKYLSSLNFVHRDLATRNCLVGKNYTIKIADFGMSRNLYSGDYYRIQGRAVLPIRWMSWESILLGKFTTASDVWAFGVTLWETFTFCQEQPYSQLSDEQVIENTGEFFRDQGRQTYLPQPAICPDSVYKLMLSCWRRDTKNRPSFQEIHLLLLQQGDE

FGFR1 = FGFR1 (Homo sapiens, UniProt P11362); settings: cited from earlier work
FYN [isoform a] = FYN [isoform a] (Homo sapiens, UniProt P06241); settings: cited from earlier work
TIE2 = TIE2 (Homo sapiens, UniProt Q02763); settings: cited from earlier work
LYN [isoform a] = LYN [isoform a] (Homo sapiens, UniProt P07948); settings: cited from earlier work
RET = RET (Homo sapiens, UniProt P07949); settings: cited from earlier work
BRD4 (Abl) = BRD4 (Abl) (Homo sapiens, UniProt O60885+P00519); assay: tyrosine phosphorylation Abl-BRD4 (Millipore); format: biochemical; settings: relative to control DMSO
Description: Multi-functional molecules comprising a BRD4 localizing moiety and an Abl activator moiety were assayed for tyrosine phosphorylation activity (Millipore)(FIG. 91). […] DPH derived PHICS phosphorylation levels, and thus, Abl engagement, varied by attachment of the DPH derivative to the multifunctional chimeric molecule via orienting adaptor and linker (FIG. 92).

Sequence of LYN [isoform a] (P07948 whole entry, canonical isoform): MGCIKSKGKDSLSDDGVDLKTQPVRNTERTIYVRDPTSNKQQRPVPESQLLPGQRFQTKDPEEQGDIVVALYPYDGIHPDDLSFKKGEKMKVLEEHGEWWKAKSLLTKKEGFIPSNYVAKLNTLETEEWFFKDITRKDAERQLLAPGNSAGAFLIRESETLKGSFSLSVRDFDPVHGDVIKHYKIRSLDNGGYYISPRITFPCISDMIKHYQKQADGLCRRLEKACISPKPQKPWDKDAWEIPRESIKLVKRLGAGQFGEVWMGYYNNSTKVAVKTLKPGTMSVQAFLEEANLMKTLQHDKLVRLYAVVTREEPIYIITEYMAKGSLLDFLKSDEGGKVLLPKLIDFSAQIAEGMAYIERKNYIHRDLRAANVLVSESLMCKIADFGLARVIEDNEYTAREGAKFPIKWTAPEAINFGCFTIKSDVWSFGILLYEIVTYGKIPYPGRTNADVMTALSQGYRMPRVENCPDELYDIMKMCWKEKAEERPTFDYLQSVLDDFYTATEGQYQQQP
Sequence of PKC beta (P05771 whole entry): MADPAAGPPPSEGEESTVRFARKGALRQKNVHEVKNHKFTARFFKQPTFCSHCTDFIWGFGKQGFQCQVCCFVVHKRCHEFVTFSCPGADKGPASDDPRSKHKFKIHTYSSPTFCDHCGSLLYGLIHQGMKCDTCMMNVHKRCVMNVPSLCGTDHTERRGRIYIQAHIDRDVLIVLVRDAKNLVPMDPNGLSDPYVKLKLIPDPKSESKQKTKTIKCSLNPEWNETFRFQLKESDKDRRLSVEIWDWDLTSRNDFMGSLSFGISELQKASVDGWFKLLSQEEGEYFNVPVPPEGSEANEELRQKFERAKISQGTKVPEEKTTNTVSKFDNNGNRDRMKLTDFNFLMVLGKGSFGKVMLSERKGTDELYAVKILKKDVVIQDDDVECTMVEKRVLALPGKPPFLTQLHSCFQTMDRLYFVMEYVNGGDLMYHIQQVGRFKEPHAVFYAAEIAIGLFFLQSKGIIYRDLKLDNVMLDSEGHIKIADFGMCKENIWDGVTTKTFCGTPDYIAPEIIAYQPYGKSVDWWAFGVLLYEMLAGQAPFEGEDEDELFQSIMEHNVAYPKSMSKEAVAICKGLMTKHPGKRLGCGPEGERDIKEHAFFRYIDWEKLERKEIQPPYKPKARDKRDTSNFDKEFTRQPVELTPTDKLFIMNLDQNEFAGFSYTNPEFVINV
Sequence of PKC delta (Q05655 whole entry): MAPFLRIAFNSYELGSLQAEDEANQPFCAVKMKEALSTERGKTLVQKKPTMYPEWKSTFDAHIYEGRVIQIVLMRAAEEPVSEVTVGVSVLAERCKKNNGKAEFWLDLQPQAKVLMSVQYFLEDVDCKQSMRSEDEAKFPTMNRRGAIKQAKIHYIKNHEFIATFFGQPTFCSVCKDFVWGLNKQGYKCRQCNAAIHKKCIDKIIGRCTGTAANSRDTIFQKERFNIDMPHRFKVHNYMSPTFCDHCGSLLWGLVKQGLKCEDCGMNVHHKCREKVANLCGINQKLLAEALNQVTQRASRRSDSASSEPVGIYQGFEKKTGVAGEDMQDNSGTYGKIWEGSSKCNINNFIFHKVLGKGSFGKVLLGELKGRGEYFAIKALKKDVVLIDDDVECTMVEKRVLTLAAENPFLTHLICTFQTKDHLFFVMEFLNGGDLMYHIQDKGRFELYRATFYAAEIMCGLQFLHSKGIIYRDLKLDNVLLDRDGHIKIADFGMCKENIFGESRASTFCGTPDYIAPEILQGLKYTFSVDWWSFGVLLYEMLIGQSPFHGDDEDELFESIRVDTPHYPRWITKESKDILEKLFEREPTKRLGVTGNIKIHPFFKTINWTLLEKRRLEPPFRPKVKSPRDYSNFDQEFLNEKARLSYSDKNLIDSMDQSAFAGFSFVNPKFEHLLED
Sequence of RET (P07949 29-1114, species assumed): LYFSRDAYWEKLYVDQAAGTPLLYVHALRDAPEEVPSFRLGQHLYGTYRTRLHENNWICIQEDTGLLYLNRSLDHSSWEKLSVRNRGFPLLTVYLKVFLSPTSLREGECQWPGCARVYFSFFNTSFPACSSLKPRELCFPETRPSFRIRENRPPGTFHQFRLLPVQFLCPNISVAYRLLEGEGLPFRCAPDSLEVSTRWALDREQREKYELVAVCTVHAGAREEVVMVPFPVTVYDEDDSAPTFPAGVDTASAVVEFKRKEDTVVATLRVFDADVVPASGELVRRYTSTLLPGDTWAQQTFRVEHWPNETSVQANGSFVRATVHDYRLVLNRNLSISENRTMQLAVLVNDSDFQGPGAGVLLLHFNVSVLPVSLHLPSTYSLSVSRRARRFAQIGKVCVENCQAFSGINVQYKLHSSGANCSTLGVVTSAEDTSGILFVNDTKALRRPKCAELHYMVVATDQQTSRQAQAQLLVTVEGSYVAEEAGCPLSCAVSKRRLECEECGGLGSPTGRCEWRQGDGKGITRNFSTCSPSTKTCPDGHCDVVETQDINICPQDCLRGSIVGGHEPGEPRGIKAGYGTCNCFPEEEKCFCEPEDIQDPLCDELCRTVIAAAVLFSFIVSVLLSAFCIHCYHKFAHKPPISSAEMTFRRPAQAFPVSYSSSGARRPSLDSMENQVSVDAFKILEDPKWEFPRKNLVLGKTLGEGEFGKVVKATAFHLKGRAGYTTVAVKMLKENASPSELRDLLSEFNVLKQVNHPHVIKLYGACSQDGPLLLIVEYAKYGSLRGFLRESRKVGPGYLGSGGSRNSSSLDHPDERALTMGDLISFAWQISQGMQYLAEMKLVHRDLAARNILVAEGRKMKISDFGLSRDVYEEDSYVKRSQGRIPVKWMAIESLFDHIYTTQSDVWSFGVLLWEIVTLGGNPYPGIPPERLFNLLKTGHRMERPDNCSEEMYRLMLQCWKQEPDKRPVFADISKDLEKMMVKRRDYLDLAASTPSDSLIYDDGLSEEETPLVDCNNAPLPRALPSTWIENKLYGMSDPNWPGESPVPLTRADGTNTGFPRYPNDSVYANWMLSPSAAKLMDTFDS
Sequence of FYN [isoform a] (P06241 whole entry, canonical isoform): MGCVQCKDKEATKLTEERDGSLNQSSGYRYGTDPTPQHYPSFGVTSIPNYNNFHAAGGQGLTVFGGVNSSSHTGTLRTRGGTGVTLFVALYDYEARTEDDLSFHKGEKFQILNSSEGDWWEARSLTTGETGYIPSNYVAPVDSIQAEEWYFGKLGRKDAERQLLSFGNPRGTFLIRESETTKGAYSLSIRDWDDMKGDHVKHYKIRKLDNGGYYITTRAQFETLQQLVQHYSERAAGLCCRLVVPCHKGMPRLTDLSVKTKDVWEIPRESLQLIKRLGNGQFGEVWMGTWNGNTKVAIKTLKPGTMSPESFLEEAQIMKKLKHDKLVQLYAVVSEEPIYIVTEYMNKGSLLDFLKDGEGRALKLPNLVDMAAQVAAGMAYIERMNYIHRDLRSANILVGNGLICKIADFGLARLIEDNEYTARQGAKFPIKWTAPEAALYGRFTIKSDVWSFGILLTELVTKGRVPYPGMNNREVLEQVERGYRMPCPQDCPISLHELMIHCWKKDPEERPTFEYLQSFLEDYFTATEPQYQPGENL

CC(C)[C@H]1C(=O)N[C@H](CO)CCc2c[nH]c3cccc(c23)N1C
Kd (PKCalpha): 11 nM
Kd (PKC beta; read-out: Kd): 6.1 nM
Kd (PKC gamma; read-out: Kd): 19.4 nM
Kd (PKC delta; read-out: Kd): 8.2 nM
Kd (PKC epsilon; read-out: Kd): 21.9 nM
antiproliferative activity against breast carcinoma [1]: inactive against breast carcinoma

C=C(C)[C@@]12OC3(c4ccccc4)O[C@@H]1[C@@H]1C4OC4(CO)C[C@]4(O)C(=O)C(C)=C[C@H]4[C@@]1(O3)[C@H](C)[C@H]2OC(=O)/C=C/C=C/c1ccccc1 (some centres unmarked)
Kd (PKCalpha): 0.27 nM
Kd (PKC beta; read-out: Kd): 0.16 nM
Kd (PKC gamma; read-out: Kd): 0.21 nM
Kd (PKC delta; read-out: Kd): 0.55 nM
Kd (PKC epsilon; read-out: Kd): 1.2 nM
Kd (PKC eta; read-out: Kd): 1.27 nM

C=C(C)[C@@]12OC3(c4ccccc4)O[C@@H]1[C@@H]1C4OC4(CO)C[C@]4(O)C(=O)C(C)=C[C@H]4[C@@]1(O3)[C@H](C)[C@H]2OC(=O)CCCCc1ccccc1 (some centres unmarked)
Kd (PKCalpha): 0.82 nM
Kd (PKC beta; read-out: Kd): 0.51 nM
Kd (PKC gamma; read-out: Kd): 0.8 nM
Kd (PKC delta; read-out: Kd): 2.17 nM
Kd (PKC epsilon; read-out: Kd): 3.13 nM
Kd (PKC eta; read-out: Kd): 2.48 nM

CCCCCCCCCCCCCC(=O)OC1C(C)C2(O)C(C=C(CO)CC3(O)C(=O)C(C)=CC32)C2C(C)(C)C12OC(C)=O (centres unmarked)
Kd (PKC beta): 0.16 nM
Kd (PKC gamma): 0.26 nM
Kd (PKC delta): 1.31 nM
Kd (PKC epsilon): 3.11 nM
Kd (PKC eta): 2.63 nM

Cc1sc2c(c1C)C(c1ccc(Cl)cc1)=NC(CC(=O)NCCCCCC(=O)NCc1ccc(COc3ccc4c(c3)N(C)[C@@H](C(C)C)C(=O)N[C@H](CO)C4)cc1)c1nnc(C)n1-2 (stereo partly drawn) [(R)-PHICS2.3]
PKC activation (ADP-Glo) (PKCα): still activated

CC(C)(C)c1nc(-c2cccc(NS(=O)(=O)c3c(F)cccc3F)c2F)c(-c2ccnc(N)n2)s1 [Dabrafenib]
ka (BRAF): 467000 M⁻¹ s⁻¹
kd (BRAF): 0.000288 s⁻¹

Cc1sc2c(c1C)C(c1ccc(Cl)cc1)=N[C@@H](CC(=O)NCc1cn(CCCCCC(=O)NCCOc3ccc(-c4cc5c(C(=O)O)c[nH]c5cc4Cl)cc3)nn1)c1nnc(C)n1-2 [MS231]
effect of addition of AMP on BRD4 phosphorylation signal (BRD4 (AMPK)): enhances the phosphorylation signal

Cc1ccc(C(=O)Nc2ccc(CN3CCN(C)CC3)c(C(F)(F)F)c2)cc1C#Cc1cnc2cccnn12 [Ponatinib]
ka (BTK): 21500 M⁻¹ s⁻¹
kd (BTK): 0.0168 s⁻¹
ka (DDR2): 29800 M⁻¹ s⁻¹
kd (DDR2): 0.00014 s⁻¹
log(ka) (DDR2): 4.47
log(kd) (DDR2): −3.85
ka (FGFR1): 17900 M⁻¹ s⁻¹
kd (FGFR1): 0.000119 s⁻¹
log(ka) (FGFR1): 4.25
log(kd) (FGFR1): −3.93
ka (FYN [isoform a]): 84900 M⁻¹ s⁻¹
kd (FYN [isoform a]): 8.93e-05 s⁻¹
log(ka) (FYN [isoform a]): 4.93
log(kd) (FYN [isoform a]): −4.05
ka (TIE2): 40200 M⁻¹ s⁻¹
kd (TIE2): 0.00268 s⁻¹
log(ka) (TIE2): 4.60
log(kd) (TIE2): −2.57
ka (LYN [isoform a]): 110000 M⁻¹ s⁻¹
kd (LYN [isoform a]): 5.4e-05 s⁻¹
log(ka) (LYN [isoform a]): 5.04
log(kd) (LYN [isoform a]): −4.27
ka (RET): 118000 M⁻¹ s⁻¹
kd (RET): 4.29e-05 s⁻¹
log(ka) (RET): 5.07
log(kd) (RET): −4.37

Cc1sc2c(c1C)C(c1ccc(Cl)cc1)=NC(CC(=O)NCCOCCOCCOCCOCCC(=O)NC1=NN(c3ccc(Cl)c(Cl)c3)CC1)c1nnc(C)n1-2 (centres unmarked) [VS801]
tyrosine phosphorylation enzymatic activity (BRD4 (Abl)): high tyrosine phosphorylation enzymatic activity

Cc1sc2c(c1C)C(c1ccc(Cl)cc1)=N[C@@H](CC(=O)NCCOCCOCCOCCOCCC(=O)NCCOc1ccc(-c3cc4c(C(=O)O)c[nH]c4cc3Cl)cc1)c1nnc(C)n1-2 [VS806]
effect of addition of AMP on BRD4 phosphorylation signal (BRD4 (AMPK)): enhances the phosphorylation signal

Cc1sc2c(c1C)C(c1ccc(Cl)cc1)=NC(CC(=O)NCCOCCOCCOCCOCCC(=O)NC1=NN(c3ccc(Cl)c(Cl)c3)CC1)c1nnc(C)n1-2 (centres unmarked) [VS850]
tyrosine phosphorylation enzymatic activity (BRD4 (Abl)): inactive
